The record followed here is patent US7173034B2, “Respiratory syncytial virus replication inhibitors” (Janssen Pharmaceutica, N.V., priority 1999, dated 2007).

Data set [1] has as its system Respiratory Syncytial Virus. The data set can be described thus: microbe, parasite or virus in culture. The data set is classed as cell-based. The conditions noted are these: for SI (selectivity index, CC50 divided by IC50): CC50 (HeLa cells) / IC50 (Respiratory Syncytial Virus); for IC50: human respiratory syncytial virus, 168 h, Respiratory Syncytial Virus in HeLa cells, seven days after infection, tetrazolium-based colorimetric assay, read-out: IC50 (antiviral activity, protection against cytopathology caused by virus). Here is the method: (§1) The percent protection against cytopathology caused by viruses (antiviral activity or IC50) achieved by tested compounds and their cytotoxicity (CC50) were both calculated from dose-response curves.
Automated tetrazolium-based colorimetric assays were used for determination of IC50 and CC50 of test compounds. Flat-bottom, 96-well plastic microtiter trays were filled with 180 μl of Eagle's Basal Medium, supplemented with 5% FCS (0% for FLU) and 20 mM Hepes buffer. Subsequently, stock solutions (7.8× final test concentration) of compounds were added in 45 μl volumes to a series of triplicate wells so as to allow simultaneous evaluation of their effects on virus- and mock-infected cells. Five five-fold dilutions were made directly in the microtiter trays using a robot system. Untreated virus controls, and HeLa cell controls were included in each test. Approximately 100 TCID50 of Respiratory Syncytial Virus was added to two of the three rows in a volume of 50 μl. The same volume of medium was added to the third row to measure the cytotoxicity of the compounds at the same concentrations as those used to measure the antiviral activity. After two hours of incubation, a suspension (4×10^5 cells/ml) of HeLa cells were added to all wells in a volume of 50 μl. The cultures were incubated at 37° C. in a 5% CO2 atmosphere. Seven days after infection the cytotoxicity and the antiviral activity was examined spectrophotometrically. To each well of the microtiter tray, 25 μl of a solution of MTT (3-(4,5-dimethylthiazol-2-yl)-2,5-diphenyltetrazolium bromide) was added. The trays were further incubated at 37° C. for 2 hours, after which the medium was removed from each cup. Solubilization of the formazan crystals was achieved by adding 100 μl 2-propanol. Complete dissolution of the formazan crystals were obtained after the trays have been placed on a plate shaker for 10 min. Finally, the absorbances were read in an eight-channel computer-controlled photometer (Multiskan MCC, Flow Laboratories) at two wavelengths (540 and 690 nm). The absorbance measured at 690 nm was automatically subtracted from the absorbance at 540 nm, so as to eliminate the effects of non-specific absorption.

Data set [2] is described as follows: Cytotoxicity in mock-infected HeLa cells (tetrazolium/MTT colorimetric assay). The data set is classed as cell-based. The conditions noted are these: human. Here is the method: as §1
Automated tetrazolium-based colorimetric assays were used for determination of IC50 and CC50 of test compounds. Flat-bottom, 96-well plastic microtiter trays were filled with 180 μl of Eagle's Basal Medium, supplemented with 5% FCS (0% for FLU) and 20 mM Hepes buffer. Subsequently, stock solutions (7.8× final test concentration) of compounds were added in 45 μl volumes to a series of triplicate wells so as to allow simultaneous evaluation of their effects on virus- and mock-infected cells. Five five-fold dilutions were made directly in the microtiter trays using a robot system. Untreated virus controls, and HeLa cell controls were included in each test. Approximately 100 TCID50 of Respiratory Syncytial Virus was added to two of the three rows in a volume of 50 μl. […] Finally, the absorbances were read in an eight-channel computer-controlled photometer (Multiskan MCC, Flow Laboratories) at two wavelengths (540 and 690 nm). The absorbance measured at 690 nm was automatically subtracted from the absorbance at 540 nm, so as to eliminate the effects of non-specific absorption.

Some results are limits rather than exact numbers.

In general, melting point refers to the temperature of the solid-liquid transition. Regarding `O=CNCCN1CCC(Nc2nc3ccccc3n2Cc2ccccn2)CC1` [Compound 18], the melting point was 146 °C. Still for that read-out and setting: the value for `CC(C)C(N)CN1CCC(Nc2nc3ccccc3n2Cc2ccccn2)CC1` (centres unmarked) [Compound 24] was 115 °C; that for `CCC(CN)N1CCC(Nc2nc3ccccc3n2Cc2ccccn2)CC1` (centres unmarked) [Compound 23] was 112 °C; that for `CC(CN)N1CCC(Nc2nc3ccccc3n2C(C)c2ccccn2)CC1` (centres unmarked) [Compound 30] was 85 °C. One may read the IC50 as the concentration that inhibits the measured activity by half. A word on the CC50: it is the concentration at which the toxic effect on the cells reaches its halfway point. The low end stands for greater toxicity to the cells, the high end for lower toxicity to the cells. For the compound `Cc1ccc(OCCO)c(Cn2c(NC3CCN(CCN)CC3)nc3ccccc32)n1` [Compound 27], in data set [1], the “SI (selectivity index, CC50 divided by IC50)” value is reported as over 7943 and the IC50 came to 12.6 nM. In data set [2], this compound gave a 50% cytotoxic concentration (CC50) at 7 days of over 100000 nM.

`Cc1ccc(O)c(Cn2c(NC3CCN(CCN)CC3)nc3c(C)cccc32)n1` [Compound 357]: in data set [1], the “SI (selectivity index, CC50 divided by IC50)” value is given as over 79 and the half-inhibitory concentration (IC50) was 0.13 nM. This compound also gave a half-maximal cytotoxic concentration (CC50) at 7 days in data set [2] (mock-infected HeLa cells, seven days, tetrazolium-based colorimetric assay) of over 10 nM.

As to `NCCCCN1CCC(Nc2nc3ccccc3n2Cc2ccccn2)CC1` [Compound 31], the melting point amounted to 94 °C.
